Values after ≈ are worked out from the molar mass of the structure shown.
Key:
Assay type in all cases: functional
Bacillus subtilis [1] = assay: Antibacterial activity against Bacillus subtilis ATCC1046 in presence of 1.25 mM Ca2+ by serial dilution method; settings: time 18 hrs
Bacillus subtilis [2] = assay: Antibacterial activity against Bacillus subtilis PY79 incubated for 18 hrs in presence of 73.6 mg/L Ca2+ by visual method
[3] = Antibacterial activity against Streptomyces sp. WAC4713 measured up to 55 hrs; settings: Streptomyces sp. WAC4713, 55 h; time hrs <=55
Staphylococcus aureus = assay: Antibacterial activity against Staphylococcus aureus ATCC 29213 incubated for 12 hrs in presence of 1.25 mM Ca2+ by broth microdilution method

Compound	MIC90 (Bacillus subtilis [2]) [µg/mL]	also measured
CCCCCCCCCC(=O)N[C@@H](Cc1c[nH]c2ccccc12)C(=O)N[C@H](CC(N)=O)C(=O)N[C@@H](CC(N)=O)C(=O)N[C@@H]1C(=O)NCC(=O)N[C@@H](CCCCN)C(=O)N[C@@H](CC(=O)O)C(=O)N[C@H](C)C(=O)N[C@@H](CC(=O)O)C(=O)NCC(=O)N[C@H](CO)C(=O)N[C@@H](CCC(=O)O)C(=O)N[C@@H](Cc2c[nH]c3ccccc23)C(=O)O[C@@H]1C	–	MIC (Bacillus subtilis [1]): 1.5 µg/mL
CCCCCCCCCC(=O)N[C@@H](Cc1c[nH]c2ccccc12)C(=O)N[C@H](CCC(=O)O)C(=O)N[C@@H](CC(N)=O)C(=O)N[C@H]1COC(=O)[C@H]([C@@H](C)CC)NC(=O)[C@H](CCC(=O)O)NC(=O)[C@@H](CC(N)=O)NC(=O)CNC(=O)[C@H](CC(=O)O)NC(=O)[C@@H](CCCCN)NC(=O)[C@H](CC(=O)O)NC(=O)[C@H](C)NC(=O)CN(C)C1=O	25	–
CCCCCCCCCC(=O)N[C@@H](Cc1c[nH]c2ccccc12)C(=O)N[C@H](CC(N)=O)C(=O)N[C@@H](CC(=O)O)C(=O)N[C@@H]1C(=O)NCC(=O)N[C@@H](CCCN)C(=O)N[C@@H](CC(=O)O)C(=O)N[C@H](C)C(=O)N[C@@H](CC(=O)O)C(=O)NCC(=O)N[C@H](CO)C(=O)N[C@@H]([C@H](C)CC(=O)O)C(=O)N[C@@H](CC(=O)c2ccccc2N)C(=O)O[C@@H]1C	2	MIC [3]: 512 µg/mL (≈ 316 µM)
CCCCCCCCCC(=O)N[C@@H](Cc1c[nH]c2ccccc12)C(=O)N[C@H](CC(N)=O)C(=O)N[C@@H](CC(=O)O)C(=O)N[C@@H]1C(=O)NCC(=O)N[C@@H](CCCCN)C(=O)N[C@@H](CC(=O)O)C(=O)N[C@H](C)C(=O)N[C@@H](CC(=O)O)C(=O)NCC(=O)N[C@H](CO)C(=O)N[C@@H](CCC(=O)O)C(=O)N[C@@H](CC(=O)c2ccccc2N)C(=O)O[C@@H]1C	–	MIC (Staphylococcus aureus): 64 µg/mL
CCCCCCCCCC(=O)N[C@@H](Cc1c[nH]c2ccccc12)C(=O)N[C@H](CC(=O)O)C(=O)N[C@@H](CC(N)=O)C(=O)N[C@@H]1C(=O)N(C)CC(=O)N[C@@H](CCCN)C(=O)N[C@@H](CC(=O)O)C(=O)N[C@H](C)C(=O)N[C@@H](CC(=O)O)C(=O)NCC(=O)N[C@H](CO)C(=O)N[C@@H](CCC(=O)O)C(=O)N[C@@H](CC(=O)c2ccccc2N)C(=O)O[C@@H]1C	20	–
CCCCCCCCCC(=O)N[C@@H](Cc1c[nH]c2ccccc12)C(=O)N[C@H](CC(=O)O)C(=O)N[C@@H](CC(N)=O)C(=O)N[C@@H]1C(=O)N(C)CC(=O)N[C@@H](C)C(=O)N[C@@H](CC(=O)O)C(=O)N[C@H](C)C(=O)N[C@@H](CC(=O)O)C(=O)NCC(=O)N[C@H](CO)C(=O)N[C@@H](CCC(=O)O)C(=O)N[C@@H](CC(=O)c2ccccc2N)C(=O)O[C@@H]1C	20	–
CCCCCCCCCC(=O)N[C@@H](Cc1c[nH]c2ccccc12)C(=O)N[C@H](CCC(=O)O)C(=O)N[C@@H](CC(N)=O)C(=O)N[C@@H]1C(=O)N(C)CC(=O)N[C@@H](C)C(=O)N[C@@H](CC(=O)O)C(=O)N[C@H](CCCCN)C(=O)N[C@@H](CC(=O)O)C(=O)NCC(=O)N[C@H](CC(N)=O)C(=O)N[C@@H](CCC(=O)O)C(=O)N[C@@H]([C@@H](C)CC)C(=O)O[C@@H]1C	25	–
CCCCCCCCCC(=O)N[C@@H](Cc1c[nH]c2ccccc12)C(=O)N[C@@H](CC(N)=O)C(=O)N[C@@H](CC(=O)O)C(=O)N[C@@H]1C(=O)NCC(=O)N[C@@H](CCCN)C(=O)N[C@@H](CC(=O)O)C(=O)N[C@H](C)C(=O)N[C@@H](CC(=O)O)C(=O)NCC(=O)N[C@H](CO)C(=O)N[C@H](CCC(=O)O)C(=O)N[C@@H](CC(=O)c2ccccc2N)C(=O)O[C@@H]1C	11	–

Source: ChEMBL document CHEMBL4680276, “Structure-Activity Relationships of Daptomycin Lipopeptides” (2020)
